Measured values from ChEMBL document CHEMBL1153563, “Comparative in vitro activities of caspofungin and micafungin, determined using the method of the European Committee on Antimicrobial Susceptibility Testing, against yeast isolates obtained in France in 2005-2006” (2008).
Values after ≈ are worked out from the molar mass of the structure shown.

Tests used:
Format in all cases: functional
Candida albicans = test: Antifungal activity against Candida albicans after 24 to 48 hrs by AFST-EUCAST based broth microdilution method
Nakaseomyces glabratus = test: Antifungal activity against Candida glabrata after 24 to 48 hrs by AFST-EUCAST based broth microdilution method
Candida parapsilosis = test: Antifungal activity against Candida parapsilosis ATCC 22019 after 24 to 48 hrs by AFST-EUCAST based broth microdilution method; conditions: Lodderomyces parapsilosis
Candida tropicalis = test: Antifungal activity against Candida tropicalis after 24 to 48 hrs by AFST-EUCAST based broth microdilution method
[1] = tested on: Meyerozyma guilliermondii; test: Antifungal activity against Candida guilliermondii after 24 to 48 hrs by AFST-EUCAST based broth microdilution method
Pichia kudriavzevii = test: Antifungal activity against Candida krusei ATCC 6258 after 24 to 48 hrs by AFST-EUCAST based broth microdilution method
Kluyveromyces marxianus = test: Antifungal activity against Candida kefyr after 24 to 48 hrs by AFST-EUCAST based broth microdilution method
[Candida] haemuloni = Antifungal activity against Candida haemulonii after 24 to 48 hrs by AFST-EUCAST based broth microdilution method; conditions: Candidozyma haemuli
Clavispora lusitaniae = test: Antifungal activity against Candida lusitaniae after 24 to 48 hrs by AFST-EUCAST based broth microdilution method
Meyerozyma caribbica = test: Antifungal activity against Candida fermentati after 24 to 48 hrs by AFST-EUCAST based broth microdilution method
Candida dubliniensis = test: Antifungal activity against Candida dubliniensis after 24 to 48 hrs by AFST-EUCAST based broth microdilution method
Yarrowia lipolytica = test: Antifungal activity against Candida lipolytica after 24 to 48 hrs by AFST-EUCAST based broth microdilution method
Debaryomyces hansenii = test: Antifungal activity against Candida famata after 24 to 48 hrs by AFST-EUCAST based broth microdilution method
Wickerhamomyces anomalus = test: Antifungal activity against Candida pelliculosa after 24 to 48 hrs by AFST-EUCAST based broth microdilution method; conditions: Hansenula anomala
Diutina rugosa = test: Antifungal activity against Candida rugosa after 24 to 48 hrs by AFST-EUCAST based broth microdilution method
Cyberlindnera jadinii = test: Antifungal activity against Candida utilis after 24 to 48 hrs by AFST-EUCAST based broth microdilution method; conditions: Williopsis jadinii
[Candida] inconspicua = Antifungal activity against Candida inconspicua after 24 to 48 hrs by AFST-EUCAST based broth microdilution method; conditions: Pichia inconspicua
[Candida] intermedia = Antifungal activity against Candida intermedia after 24 to 48 hrs by AFST-EUCAST based broth microdilution method; conditions: Sungouiella intermedia
Candida africana = test: Antifungal activity against Candida africana after 24 to 48 hrs by AFST-EUCAST based broth microdilution method
Pichia fermentans = test: Antifungal activity against Candida lambica after 24 to 48 hrs by AFST-EUCAST based broth microdilution method
Nakaseomyces nivariensis = test: Antifungal activity against Candida nivariensis after 24 to 48 hrs by AFST-EUCAST based broth microdilution method
Pichia norvegensis = test: Antifungal activity against Candida norvegensis after 24 to 48 hrs by AFST-EUCAST based broth microdilution method
Kluyveromyces lactis = test: Antifungal activity against Candida sphaerica after 24 to 48 hrs by AFST-EUCAST based broth microdilution method
Saccharomyces cerevisiae = test: Antifungal activity against Saccharomyces cerevisiae after 24 to 48 hrs by AFST-EUCAST based broth microdilution method
Geotrichum = test: Antifungal activity against Geotrichum after 24 to 48 hrs by AFST-EUCAST based broth microdilution method
Cyberlindnera saturnus = test: Antifungal activity against Williopsis saturnus after 24 to 48 hrs by AFST-EUCAST based broth microdilution method
Kodamaea ohmeri = test: Antifungal activity against Kodamaea ohmeri after 24 to 48 hrs by AFST-EUCAST based broth microdilution method
Zygosaccharomyces = test: Antifungal activity against Zygosaccharomyces after 24 to 48 hrs by AFST-EUCAST based broth microdilution method
Cryptococcus neoformans = test: Antifungal activity against […] after 24 to 48 hrs by AFST-EUCAST based broth microdilution method
Trichosporon = test: Antifungal activity against Trichosporon after 24 to 48 hrs by AFST-EUCAST based broth microdilution method
Rhodotorula mucilaginosa = test: Antifungal activity against Rhodotorula mucilaginosa after 24 to 48 hrs by AFST-EUCAST based broth microdilution method

**Q.** With CC[C@H](C)C[C@H](C)CCCCCCCCC(=O)N[C@H]1C[C@@H](O)[C@@H](NCCN)NC(=O)[C@@H]2[C@@H](O)CCN2C(=O)[C@H]([C@H](O)CCN)NC(=O)[C@H]([C@H](O)[C@@H](O)c2ccc(O)cc2)NC(=O)[C@@H]2C[C@@H](O)CN2C(=O)[C@H]([C@@H](C)O)NC1=O [CASPOFUNGIN] as the compound, how does the MIC50 (Candida albicans) read?
**A.** The MIC50 was 0.5 µg/mL (≈ 0.457 µM).

**Q.** And the MIC90 (Candida albicans)?
**A.** Its MIC90 is 0.5 µg/mL (≈ 0.457 µM).

**Q.** What about the MIC50 (Nakaseomyces glabratus) of the same compound?
**A.** The MIC50 was 0.5 µg/mL (≈ 0.457 µM).

**Q.** And the MIC90 (Nakaseomyces glabratus)?
**A.** Its MIC90 is 1 µg/mL (≈ 0.915 µM).

**Q.** And the MIC50 (Candida parapsilosis)?
**A.** The MIC50 was 2 µg/mL (≈ 1.83 µM).

**Q.** And the MIC90 (Candida parapsilosis)?
**A.** The MIC90 was 2 µg/mL (≈ 1.83 µM).

**Q.** And the MIC50 (Candida tropicalis)?
**A.** The MIC50 was 0.5 µg/mL (≈ 0.457 µM).

**Q.** And the MIC90 (Candida tropicalis)?
**A.** The MIC90 was 1 µg/mL (≈ 0.915 µM).

**Q.** What about the MIC50 [1] of the same compound?
**A.** The MIC50 was 2 µg/mL (≈ 1.83 µM).

**Q.** And the MIC90 [1]?
**A.** The MIC90 was 2 µg/mL (≈ 1.83 µM).

**Q.** And the MIC50 (Pichia kudriavzevii)?
**A.** Its MIC50 is 1 µg/mL (≈ 0.915 µM).

**Q.** And the MIC90 (Pichia kudriavzevii)?
**A.** Its MIC90 is 2 µg/mL (≈ 1.83 µM).

**Q.** What about the MIC50 (Kluyveromyces marxianus) of the same compound?
**A.** The MIC50 was 0.25 µg/mL (≈ 0.229 µM).

**Q.** What about the MIC90 (Kluyveromyces marxianus) of the same compound?
**A.** Its MIC90 is 0.5 µg/mL (≈ 0.457 µM).

**Q.** And the MIC50 ([Candida] haemuloni)?
**A.** Its MIC50 is 1 µg/mL (≈ 0.915 µM).

**Q.** What about the MIC90 ([Candida] haemuloni) of the same compound?
**A.** The MIC90 was 2 µg/mL (≈ 1.83 µM).

**Q.** What about the MIC50 (Clavispora lusitaniae) of the same compound?
**A.** The MIC50 was 1 µg/mL (≈ 0.915 µM).

**Q.** What about the MIC90 (Clavispora lusitaniae) of the same compound?
**A.** Its MIC90 is 1 µg/mL (≈ 0.915 µM).

**Q.** What about the MIC50 (Meyerozyma caribbica) of the same compound?
**A.** The MIC50 was 1 µg/mL (≈ 0.915 µM).

**Q.** And the MIC90 (Meyerozyma caribbica)?
**A.** Its MIC90 is 2 µg/mL (≈ 1.83 µM).

**Q.** And the MIC50 (Candida dubliniensis)?
**A.** The MIC50 was 0.5 µg/mL (≈ 0.457 µM).

**Q.** What about the MIC90 (Candida dubliniensis) of the same compound?
**A.** Its MIC90 is 1 µg/mL (≈ 0.915 µM).

**Q.** What about the MIC50 (Yarrowia lipolytica) of the same compound?
**A.** Its MIC50 is 0.5 µg/mL (≈ 0.457 µM).

**Q.** And the MIC90 (Yarrowia lipolytica)?
**A.** The MIC90 was 1 µg/mL (≈ 0.915 µM).

**Q.** What about the MIC50 (Debaryomyces hansenii) of the same compound?
**A.** The MIC50 was 0.5 µg/mL (≈ 0.457 µM).

**Q.** What about the MIC90 (Debaryomyces hansenii) of the same compound?
**A.** The MIC90 was 1 µg/mL (≈ 0.915 µM).

**Q.** What about the MIC50 (Wickerhamomyces anomalus) of the same compound?
**A.** The MIC50 was 0.5 µg/mL (≈ 0.457 µM).

**Q.** And the MIC90 (Wickerhamomyces anomalus)?
**A.** Its MIC90 is 1 µg/mL (≈ 0.915 µM).

**Q.** And the MIC50 (Diutina rugosa)?
**A.** The MIC50 was 0.5 µg/mL (≈ 0.457 µM).

**Q.** And the MIC90 (Diutina rugosa)?
**A.** The MIC90 was 1 µg/mL (≈ 0.915 µM).

**Q.** And the MIC50 (Cyberlindnera jadinii)?
**A.** The MIC50 was 0.5 µg/mL (≈ 0.457 µM).

**Q.** And the MIC90 (Cyberlindnera jadinii)?
**A.** The MIC90 was 1 µg/mL (≈ 0.915 µM).

**Q.** And the MIC50 ([Candida] inconspicua)?
**A.** The MIC50 was 0.5 µg/mL (≈ 0.457 µM).

**Q.** What about the MIC90 ([Candida] inconspicua) of the same compound?
**A.** Its MIC90 is 1 µg/mL (≈ 0.915 µM).

**Q.** And the MIC50 ([Candida] intermedia)?
**A.** The MIC50 was 0.5 µg/mL (≈ 0.457 µM).

**Q.** And the MIC90 ([Candida] intermedia)?
**A.** The MIC90 was 1 µg/mL (≈ 0.915 µM).

**Q.** What about the MIC50 (Candida africana) of the same compound?
**A.** The MIC50 was 0.5 µg/mL (≈ 0.457 µM).

**Q.** And the MIC90 (Candida africana)?
**A.** Its MIC90 is 1 µg/mL (≈ 0.915 µM).

**Q.** What about the MIC50 (Pichia fermentans) of the same compound?
**A.** Its MIC50 is 0.5 µg/mL (≈ 0.457 µM).

**Q.** And the MIC90 (Pichia fermentans)?
**A.** The MIC90 was 1 µg/mL (≈ 0.915 µM).

**Q.** And the MIC50 (Nakaseomyces nivariensis)?
**A.** Its MIC50 is 0.5 µg/mL (≈ 0.457 µM).

**Q.** And the MIC90 (Nakaseomyces nivariensis)?
**A.** The MIC90 was 1 µg/mL (≈ 0.915 µM).

**Q.** And the MIC50 (Pichia norvegensis)?
**A.** The MIC50 was 0.5 µg/mL (≈ 0.457 µM).

**Q.** What about the MIC90 (Pichia norvegensis) of the same compound?
**A.** The MIC90 was 1 µg/mL (≈ 0.915 µM).

**Q.** And the MIC50 (Kluyveromyces lactis)?
**A.** The MIC50 was 0.5 µg/mL (≈ 0.457 µM).

**Q.** And the MIC90 (Kluyveromyces lactis)?
**A.** Its MIC90 is 1 µg/mL (≈ 0.915 µM).

**Q.** And the MIC50 (Saccharomyces cerevisiae)?
**A.** The MIC50 was 1 µg/mL (≈ 0.915 µM).

**Q.** What about the MIC90 (Saccharomyces cerevisiae) of the same compound?
**A.** Its MIC90 is 16 µg/mL (≈ 14.6 µM).

**Q.** What about the MIC50 (Geotrichum) of the same compound?
**A.** The MIC50 was 1 µg/mL (≈ 0.915 µM).

**Q.** What about the MIC90 (Geotrichum) of the same compound?
**A.** The MIC90 was 16 µg/mL (≈ 14.6 µM).

**Q.** What about the MIC50 (Cyberlindnera saturnus) of the same compound?
**A.** The MIC50 was 1 µg/mL (≈ 0.915 µM).

**Q.** And the MIC90 (Cyberlindnera saturnus)?
**A.** The MIC90 was 16 µg/mL (≈ 14.6 µM).

**Q.** What about the MIC50 (Kodamaea ohmeri) of the same compound?
**A.** The MIC50 was 1 µg/mL (≈ 0.915 µM).

**Q.** And the MIC90 (Kodamaea ohmeri)?
**A.** The MIC90 was 16 µg/mL (≈ 14.6 µM).

**Q.** What about the MIC50 (Zygosaccharomyces) of the same compound?
**A.** The MIC50 was 1 µg/mL (≈ 0.915 µM).

**Q.** And the MIC90 (Zygosaccharomyces)?
**A.** The MIC90 was 16 µg/mL (≈ 14.6 µM).

**Q.** And the MIC50 (Cryptococcus neoformans)?
**A.** The MIC50 was 8 µg/mL (≈ 7.32 µM).

**Q.** What about the MIC90 (Cryptococcus neoformans) of the same compound?
**A.** The MIC90 was 16 µg/mL (≈ 14.6 µM).

**Q.** And the MIC50 (Trichosporon)?
**A.** Its MIC50 is 16 µg/mL (≈ 14.6 µM).

**Q.** What about the MIC50 (Rhodotorula mucilaginosa) of the same compound?
**A.** Its MIC50 is 16 µg/mL (≈ 14.6 µM).
